Eight molecules from patent publication US8058263B2, “Substituted 2-phenyl-pyridine derivatives” (Actelion Pharmaceuticals Ltd, priority 2008, dated 2011) can be followed below.

The IC50 is the concentration that gives 50% inhibition.

For the test, the target named is T1, human P2Y12 receptor (Homo sapiens, UniProt Q9H244).
T1 construct: expressed in transfected cells; host or cells: Chinese Hamster Ovary (CHO) cells
T1 sequence (Q9H244 whole entry): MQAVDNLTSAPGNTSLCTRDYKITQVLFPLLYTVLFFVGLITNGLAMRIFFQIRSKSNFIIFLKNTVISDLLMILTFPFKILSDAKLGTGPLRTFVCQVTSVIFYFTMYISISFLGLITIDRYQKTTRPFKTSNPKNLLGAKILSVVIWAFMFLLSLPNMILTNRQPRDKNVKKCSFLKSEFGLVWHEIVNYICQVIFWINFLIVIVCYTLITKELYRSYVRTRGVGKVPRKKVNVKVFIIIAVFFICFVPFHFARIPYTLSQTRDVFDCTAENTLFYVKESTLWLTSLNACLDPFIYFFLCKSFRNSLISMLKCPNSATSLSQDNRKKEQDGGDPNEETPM
As to the kind of experiment: P2Y12 receptor binding assay. The settings on record: CHO cells with recombinant expression of the human P2Y12 receptor; tritium-labeled 2-methyl-S-ADP; 2 hours at RT. The procedure:
P2Y12 Receptor Binding Assay
Chinese Hamster Ovary (CHO) cells with recombinant expression of the human P2Y12 receptor were cultured in 24 well cell-culture plates. Cells were washed three times with binding buffer (50 mM Tris pH 7.4, 100 mM NaCl, 1 mM EDTA, 0.5% BSA). The cells were then incubated with 0.5 mL per well binding buffer containing tritium-labeled 2-methyl-thio-adenosine 5′-diphosphate (2-methyl-S-ADP) (between 100,000 and 300,000 dpm per well) and various concentrations of test compounds. After incubation at RT for 2 hours, cells were washed three times with binding buffer. Then, cells were solubilized by addition of 0.5 mL solubilization buffer (SDS, NaOH, EDTA). The content of each well was then transferred into beta-counter vials and 2.0 ml of Ultima Gold Scintillation liquid was added.
As for `CCCCOC(=O)N1CCN(C(=O)[C@H](CP(=O)(O)O)NC(=O)c2cc(OCCOC)cc(-c3ccccc3)n2)CC1` [Example 36, 4-((R)-2-{[4-(2-methoxy-ethoxy)-6-phenyl-pyridine-2-carbonyl]-amino}-3-phosphono-propionyl)-piperazine-1-carboxylic acid butyl ester], the IC50 was found to be 2 nM.
On to `CCCCOC(=O)N1CCN(C(=O)[C@H](CP(=O)(OCOC(C)=O)OCOC(C)=O)NC(=O)c2cc(N3CC[C@H](OC)C3)cc(-c3ccccc3)n2)CC1` [Example 39, 4-((R)-3-(Bis-acetoxymethoxy-phosphoryl)-2-{[4-((S)-3-methoxy-pyrrolidin-1-yl)-6-phenyl-pyridine-2-carbonyl]-amino}-propionyl)-piperazine-1-carboxylic acid butyl ester], for which the IC50 was 3 nM.
For `CCCCOC(=O)N1CCN(C(=O)[C@H](CP(=O)(O)O)NC(=O)c2cc(-c3ccccc3)cc(-c3ccc(F)cc3)n2)CC1` [Example 17, 4-((R)-2-{[6-(4-fluoro-phenyl)-4-phenyl-pyridine-2-carbonyl]-amino}-3-phosphono-propionyl)-piperazine-1-carboxylic acid butyl ester] the value was 19 nM.
With `CCCCOC(=O)N1CCN(C(=O)[C@@H](CCCP(=O)(O)O)NC(=O)c2cc(N3CC[C@H](OC)C3)cc(-c3ccccc3)n2)CC1` [Example 14, 4-((R)-2-{[4-((S)-3-methoxy-pyrrolidin-1-yl)-6-phenyl-pyridine-2-carbonyl]-amino}-5-phosphono-pentanoyl)-piperazine-1-carboxylic acid butyl ester], the IC50 turned out to be 30 nM.
For `CCCCOC(=O)N1CCN(C(=O)[C@H](CP(=O)(O)O)NC(=O)c2cc(NC3CC3)cc(-c3ccccc3)n2)CC1` [Example 31, 4-{(R)-2-[(4-cyclopropylamino-6-phenyl-pyridine-2-carbonyl)-amino]-3-phosphono-propionyl}-piperazine-1-carboxylic acid butyl ester], the IC50 stood at 4 nM.
For `CCCCOC(=O)N1CCN(C(=O)C(NC(=O)c2cc(N3CC[C@H](OC)C3)cc(-c3ccccc3)n2)P(=O)(O)O)CC1` (stereo partly drawn) [Example 12, 4-(-2-{[4-((S)-3-methoxy-pyrrolidin-1-yl)-6-phenyl-pyridine-2-carbonyl]-amino}-2-phosphono-acetyl)-piperazine-1-carboxylic acid butyl ester] the value was 186 nM; for `CCCCOC(=O)N1CCN(C(=O)[C@H](CP(=O)(O)O)NC(=O)c2cc([C@H]3C[C@@H]3CO)cc(-c3ccccc3)n2)CC1` [Example 20, 4-((R)-2-{[4-((1S,2S)-2-hydroxymethyl-cyclopropyl)-6-phenyl-pyridine-2-carbonyl]-amino}-3-phosphono-propionyl)-piperazine-1-carboxylic acid butyl ester], 5 nM; for `CCOC(=O)N1CCN(C(=O)[C@H](Cc2ccc(P(=O)(O)O)cc2)NC(=O)c2cc(N3CC[C@H](OC)C3)cc(-c3ccccc3)n2)CC1` [Example 24, 4-[(S)-2-{[4-((S)-3-methoxy-pyrrolidin-1-yl)-6-phenyl-pyridine-2-carbonyl]-amino}-3-(4-phosphono-phenyl)-propionyl]-piperazine-1-carboxylic acid ethyl ester], 1 nM.
